Measured values published in patent US8377478B2, “Solid detergent composition” (Innospec Limited, priority 2007, dated 2013).

Columns and labels:
Format in all cases: physicochemical
[1] = Appearance of the materials observed periodically over 72 hours
Experimental: The appearance of each of the materials was observed periodically over 72 hours. The observations are recorded in table 2.

[2] = Increase in mass of the samples over time
From the text: Table 3 show how the samples increased in mass over time.

[3] = Solubility: EDDS content of a saturated solution in water; conditions: room temperature, stirred overnight, as free EDDS, ignoring counter ion
Experimental: The solubility of each sample was measured as follows: An excess of solid material was added to 5 ml of water and stirred overnight at room temperature. The solution was filtered and the filtrate analysed for EDDS content by HPLC. The solubility values given in table 4 refer to the amount of free EDDS or succinate ion present and ignore the mass of any associated counter ion.

Row | Appearance after 24 hr ([1]; after 24 hr) | Appearance after 48 hr [1] | Appearance after 72 hr [1] | Initial Appearance [1] | % increase in mass after 72 hr [2] | EDDS content of a saturated solution solubility [3] | Appearance after 24 hr ([1]; cell in the 24 hr column marked (2 hr)) | SMILES
1 | Free flowing | Free flowing | Free flowing | Free flowing | 0.10% | 164300 mg/kg |  | O=C([O-])CC(NCCNC(CC(=O)[O-])C(=O)[O-])C(=O)[O-].[Mg+2].[Mg+2] (centres unmarked) [Example A]
2 | Slightly | Slightly | Slightly | Free flowing | 8.81% | 10100 mg/kg |  | O=C([O-])CC(NCCNC(CC(=O)[O-])C(=O)[O-])C(=O)[O-].[Ca+2].[Ca+2] (centres unmarked) [F]
3 |  | Very Sticky | Very Sticky | Free flowing | 25% |  | Sticky Solid | O=C1CCC(=O)ON2CCN(O1)OC(=O)CCC(=O)O2.[Na].[Na].[Na] [Na3EDDS, trisodium ethylenediamine disuccinate]
